# Data from the OPERA property sets (Mansouri et al. 2018).
row,SMILES,logP
1,CCNC(=O)c1c[nH]c2ccccc12,1.62
2,CCCNC(=O)c1ccc[nH]1,1.25
3,CCNC(=O)c1cc2ccccc2o1,2.22
4,Cn1cccc1C(N)=O,0.45
5,CNC(=O)c1ccc[nH]1,0.42
6,CCCNC(=O)c1cc2ccccc2[nH]1,2.8
7,CCCNC(=O)c1ccoc1,1.2
8,CCOC(=O)c1ccc[nH]1,1.73
9,CNC(=O)c1c[nH]c2ccccc12,1.25
10,CCNC(=O)c1ccc[nH]1,0.8
11,NC(=O)c1ccc[nH]1,0.09
12,CNC(=O)c1cc2ccccc2[nH]1,1.9
13,COC(=O)c1cccn1C,1.8
14,CCOC(=O)c1cc2ccccc2o1,3.05
15,O=[N+]([O-])c1cncnc1,-0.05
16,CCCNC(=O)c1cccn1C,1.63
17,CCNC(=O)c1cc2ccccc2[nH]1,2.32
18,CNC(=O)c1cccn1C,0.71
19,CCCNC(=O)c1cc2ccccc2o1,2.65
20,CCNC(=O)c1cccn1C,1.09
21,CCOC(=O)c1cc2ccccc2[nH]1,3.22
22,CNC(=O)c1cc2ccccc2o1,1.85
